From patent US11331299B2, “Medicinal use of serrulatane diterpenes” (The University of Sydney, priority 2016, dated 2022)
Like-named read-outs stand apart in the source and are kept apart here.

System: 280 human cancer cell lines
Assay: OncoPanel cell proliferation assay (10-day)
Assay type: cell-based
Conditions: Homo sapiens; for GI50: read-out: Cell Count GI50; for IC50: read-out: Cell Count IC50; for EC50: read-out: Cell Count EC50
[1] = KHOS-240S, Soft Tissue - Osteosarcoma
[2] = ME-180, ME-180, Female GU - Ovary
[3] = MG-63, MG-63, Soft Tissue - Osteosarcoma
[4] = MHH-PREB-1, MHH-PREB-1, Leukemia
[5] = MIA PaCa-2, Mia PaCa-2, Pancreas
[6] = MS751, MS751, Female GU - Ovary
[7] = Malme-3M, MALME3M, Skin (Melanoma)

CC(C)=CCC[C@@H]1C(O)Oc2c(C)cc(O)c3c2[C@H]1CC[C@H]3C (some centres unmarked) [Compound 2, 5,18-epoxyserrulat-14-en-8,18-diol]
GI50 [1]: 4.58 µM | IC50 [1]: 4.59 µM | EC50 (KLE, Female GU - Uterus): 26.3 µM | GI50 (KLE, Female GU - Uterus): 20.5 µM | IC50 (KLE, Female GU - Uterus): 26.3 µM | EC50 (KPL-1, KPL-1, Breast): 4.7 µM | GI50 (KPL-1, KPL-1, Breast): 4.7 µM | IC50 (KPL-1, KPL-1, Breast): 4.73 µM | EC50 (KU812, KU812, Leukemia): 6.52 µM | GI50 (KU812, KU812, Leukemia): 5.66 µM | IC50 (KU812, KU812, Leukemia): 6.52 µM | EC50 (L-428, L-428, Lymphoma): 8.87 µM | GI50 (L-428, L-428, Lymphoma): 8.83 µM | IC50 (L-428, L-428, Lymphoma): 8.87 µM | EC50 (LNCaP, Prostate): 0.86 µM | GI50 (LNCaP, Prostate): 0.28 µM | IC50 (LNCaP, Prostate): 0.86 µM | EC50 (LS-123, LS123, Colon): 6.57 µM | GI50 (LS-123, LS123, Colon): 13.4 µM | IC50 (LS-123, LS123, Colon): 18.4 µM | EC50 (LS-411N, LS411N, Colon): 23.9 µM | GI50 (LS-411N, LS411N, Colon): 23.4 µM | IC50 (LS-411N, LS411N, Colon): 23.9 µM | EC50 (LS-1034, LS1034, Colon): 12.7 µM | GI50 (LS-1034, LS1034, Colon): 12 µM | IC50 (LS-1034, LS1034, Colon): 12.7 µM | EC50 (M059J, CNS - Glioma): 9.98 µM | GI50 (M059J, CNS - Glioma): 14.2 µM | IC50 (M059J, CNS - Glioma): 15.8 µM | EC50 (MC116, MC116, Lymphoma): 13.8 µM | GI50 (MC116, MC116, Lymphoma): 13.8 µM | IC50 (MC116, MC116, Lymphoma): 13.8 µM | EC50 (MC-IXC, CNS - Neuroblastoma): 16.9 µM | GI50 (MC-IXC, CNS - Neuroblastoma): 16.9 µM | IC50 (MC-IXC, CNS - Neuroblastoma): 16.9 µM | EC50 (MCF7, MCF7, Breast): 10.4 µM | GI50 (MCF7, MCF7, Breast): 9.96 µM | IC50 (MCF7, MCF7, Breast): 10.4 µM | EC50 (MDA-MB-231, MDA MB 231, Breast): 4.39 µM | GI50 (MDA-MB-231, MDA MB 231, Breast): 4.36 µM | IC50 (MDA-MB-231, MDA MB 231, Breast): 4.39 µM | EC50 (MDA-MB-436, MDA-MB-436, Breast): 9.72 µM | GI50 (MDA-MB-436, MDA-MB-436, Breast): 9.73 µM | IC50 (MDA-MB-436, MDA-MB-436, Breast): 9.77 µM | EC50 (MDA-MB-453, MDA MB 453, Breast): 3.68 µM | GI50 (MDA-MB-453, MDA MB 453, Breast): 3.65 µM | IC50 (MDA-MB-453, MDA MB 453, Breast): 3.69 µM | EC50 (MDA-MB-468, MDA MB 468, Breast): 8.07 µM | GI50 (MDA-MB-468, MDA MB 468, Breast): 8 µM | IC50 (MDA-MB-468, MDA MB 468, Breast): 8.08 µM | EC50 [2]: > 30 µM | GI50 [2]: > 30 µM | IC50 [2]: > 30 µM | EC50 (MEG-01, MEG01, Leukemia): 13.8 µM | GI50 (MEG-01, MEG01, Leukemia): 13.7 µM | IC50 (MEG-01, MEG01, Leukemia): 13.8 µM | EC50 (MES-SA, Soft Tissue - Sarcoma): 9.26 µM | GI50 (MES-SA, Soft Tissue - Sarcoma): 9.22 µM | IC50 (MES-SA, Soft Tissue - Sarcoma): 9.26 µM | EC50 [3]: > 30 µM | GI50 [3]: > 30 µM | IC50 [3]: > 30 µM | EC50 [4]: 7.85 µM | GI50 [4]: 7.85 µM | IC50 [4]: 7.85 µM | EC50 [5]: 16.3 µM | GI50 [5]: 16.2 µM | IC50 [5]: 16.3 µM | EC50 (MOLT-3, MOLT-3, Leukemia): 1.27 µM | GI50 (MOLT-3, MOLT-3, Leukemia): 1.26 µM | IC50 (MOLT-3, MOLT-3, Leukemia): 1.27 µM | EC50 (MOLT-16, MOLT-16, Leukemia): 13.3 µM | GI50 (MOLT-16, MOLT-16, Leukemia): 13.3 µM | IC50 (MOLT-16, MOLT-16, Leukemia): 13.3 µM | EC50 [6]: 7.55 µM | GI50 [6]: 8.72 µM | IC50 [6]: 8.78 µM | EC50 (MT-3, Colon): 16.9 µM | GI50 (MT-3, Colon): 16.8 µM | IC50 (MT-3, Colon): 16.9 µM | EC50 (MV4-11, MV-4-11, Leukemia): 8.56 µM | GI50 (MV4-11, MV-4-11, Leukemia): 8.52 µM | IC50 (MV4-11, MV-4-11, Leukemia): 8.56 µM | EC50 (MX1, Leukemia): 10.8 µM | GI50 (MX1, Leukemia): 10.8 µM | IC50 (MX1, Leukemia): 10.8 µM | EC50 [7]: 19.8 µM | GI50 [7]: 17.3 µM | IC50 [7]: 19.8 µM | EC50 (MeWo, Skin (Melanoma)): 9.45 µM | GI50 (MeWo, Skin (Melanoma)): 9.91 µM | IC50 (MeWo, Skin (Melanoma)): 9.97 µM | EC50 (NALM-6, NALM-6, Leukemia): 1.67 µM | GI50 (NALM-6, NALM-6, Leukemia): 1.68 µM | IC50 (NALM-6, NALM-6, Leukemia): 1.68 µM | EC50 (NAMALWA, Lymphoma): 5.71 µM | GI50 (NAMALWA, Lymphoma): 5.7 µM | IC50 (NAMALWA, Lymphoma): 5.71 µM | EC50 (NCI-H69, NCI-H69, Lung - SCLC): 16.2 µM | GI50 (NCI-H69, NCI-H69, Lung - SCLC): 14.9 µM | IC50 (NCI-H69, NCI-H69, Lung - SCLC): 16.2 µM
